Measurements reported in ChEMBL document CHEMBL4052681, “Discovery of simplified leucyladenylate sulfamates as novel leucyl-tRNA synthetase (LRS)-targeted mammalian target of rapamycin complex 1 (mTORC1) inhibitors” (Bioorg Med Chem, 2017).
Activity calls are given as the source filed them. The rule behind the calls is not given here.

Legend:
[1] = target: T1, Leucine--tRNA ligase, cytoplasmic (Homo sapiens, UniProt Q9P2J5); test: Inhibition of LRS-dependent mTORC1 activation in HEK293 cells assessed as reduction in leucine-induced mTORC1-mediated S6 Kinase phosphorylation at 200 uM pretreated before leucine stimulation measured after 10 mins by immunoblot analysis; assay type: cell-based
Target sequence in this assay (Q9P2J5 whole entry, looked up): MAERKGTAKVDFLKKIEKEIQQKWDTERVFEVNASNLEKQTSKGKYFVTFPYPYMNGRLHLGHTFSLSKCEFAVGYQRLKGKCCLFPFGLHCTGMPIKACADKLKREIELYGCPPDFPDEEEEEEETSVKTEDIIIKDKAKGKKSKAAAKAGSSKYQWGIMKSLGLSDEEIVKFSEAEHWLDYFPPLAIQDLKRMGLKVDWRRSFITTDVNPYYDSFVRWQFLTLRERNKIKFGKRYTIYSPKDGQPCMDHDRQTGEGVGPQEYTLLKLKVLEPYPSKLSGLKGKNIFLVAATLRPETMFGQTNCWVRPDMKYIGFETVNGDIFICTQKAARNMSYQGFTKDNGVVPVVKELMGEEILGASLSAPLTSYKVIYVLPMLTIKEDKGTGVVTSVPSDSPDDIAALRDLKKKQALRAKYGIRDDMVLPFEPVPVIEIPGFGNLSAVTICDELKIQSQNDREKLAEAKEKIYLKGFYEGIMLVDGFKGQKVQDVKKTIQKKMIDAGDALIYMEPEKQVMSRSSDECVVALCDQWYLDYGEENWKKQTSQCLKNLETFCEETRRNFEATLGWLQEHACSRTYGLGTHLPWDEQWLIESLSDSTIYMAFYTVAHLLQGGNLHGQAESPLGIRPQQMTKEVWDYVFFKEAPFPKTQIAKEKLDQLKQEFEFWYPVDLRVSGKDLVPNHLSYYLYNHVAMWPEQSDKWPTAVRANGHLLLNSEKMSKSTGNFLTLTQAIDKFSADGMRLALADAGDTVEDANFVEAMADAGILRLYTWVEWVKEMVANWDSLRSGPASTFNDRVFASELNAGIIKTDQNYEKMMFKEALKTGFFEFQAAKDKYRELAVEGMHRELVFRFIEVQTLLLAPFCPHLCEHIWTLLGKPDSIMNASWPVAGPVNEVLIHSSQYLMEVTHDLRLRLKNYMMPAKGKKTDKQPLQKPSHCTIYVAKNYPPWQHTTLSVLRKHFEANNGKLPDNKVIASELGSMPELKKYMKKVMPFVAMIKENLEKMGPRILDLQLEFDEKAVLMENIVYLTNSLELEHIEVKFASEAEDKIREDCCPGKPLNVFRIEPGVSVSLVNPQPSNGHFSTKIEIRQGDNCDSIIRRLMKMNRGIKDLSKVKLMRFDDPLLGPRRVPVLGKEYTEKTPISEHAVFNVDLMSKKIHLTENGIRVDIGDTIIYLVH

[2] = target: T1, Leucine--tRNA ligase, cytoplasmic; test: Inhibition of LRS-dependent mTORC1 activation in HEK293 cells assessed as reduction in leucine-induced mTORC1-mediated S6 Kinase phosphorylation at 20 to 200 uM pretreated before leucine stimulation measured after 10 mins by immunoblot analysis; assay type: cell-based
Target sequence in this assay (Q9P2J5 whole entry, looked up): as above

[3] = target: T1, Leucine--tRNA ligase, cytoplasmic; test: Inhibition of LRS-dependent mTORC1 activation in HEK293 cells assessed as reduction in leucine-induced mTORC1-mediated S6 Kinase phosphorylation pretreated before leucine stimulation measured after 10 mins by immunoblot analysis; assay type: cell-based
A549 = test: Growth inhibition of human A549 cells incubated for 72 hrs by sulforhodamine B assay; assay type: functional, cell-based; conditions: A549, 72 h
HCT-116 = test: Growth inhibition of human HCT116 cells incubated for 72 hrs by sulforhodamine B assay; assay type: functional, cell-based; conditions: HCT-116, 72 h
K562 = test: Growth inhibition of human K562 cells incubated for 72 hrs by sulforhodamine B assay; assay type: functional, cell-based; conditions: K562, 72 h
MDA-MB-231 = test: Growth inhibition of human MDA-MB-231 cells incubated for 72 hrs by sulforhodamine B assay; assay type: functional, cell-based; conditions: MDA-MB-231, 72 h
SK-HEP1 = test: Growth inhibition of human SKHEP1 cells incubated for 72 hrs by sulforhodamine B assay; assay type: functional, cell-based; conditions: SK-HEP1, 72 h
SNU-638 = test: Growth inhibition of human SNU638 cells incubated for 72 hrs by sulforhodamine B assay; assay type: functional, cell-based; conditions: SNU-638, 72 h
MRC5 = test: Growth inhibition of human MRC5 cells incubated for 72 hrs by sulforhodamine B assay; assay type: cell-based; conditions: MRC5, 72 h
[4] = target: T1, Leucine--tRNA ligase, cytoplasmic; test: Inhibition of LRS canonical enzyme activity in HEK293 cells assessed as effect on enzyme-mediated aminoleucylation; assay type: cell-based
Target sequence in this assay (Q9P2J5 whole entry): as the sequence (Q9P2J5 whole entry, looked up) above

[5] = target: T1, Leucine--tRNA ligase, cytoplasmic; test: Inhibition of LRS-dependent mTORC1 activation in HEK293 cells assessed as reduction in leucine-induced mTORC1-mediated S6 Kinase phosphorylation at 100 nM pretreated before leucine stimulation measured after 10 mins by immunoblot analysis; assay type: cell-based
Target sequence in this assay (Q9P2J5 whole entry, looked up): as above

inhibition of S6K phosphorylation (qualitative) [1]	IC50 (A549)	IC50 (HCT-116)	IC50 (K562)	IC50 (MDA-MB-231)	IC50 (SK-HEP1)	IC50 (SNU-638)	SMILES	IC50 (MRC5)	also measured
Active							COc1ccc(CNS(=O)(=O)c2ccc(NC(=O)[C@@H](O)[C@H](O)C(C)C)cc2)cc1OC		
Active							COc1ccc(CNS(=O)(=O)c2ccc(NC(=O)[C@@H](O)CC(C)C)cc2)cc1OC		
Active							CC(C)C[C@H](O)C(=O)NS(=O)(=O)OC[C@H]1O[C@@H](n2cnc3c(N)nc(I)nc32)[C@H](O)[C@@H]1O		
							COc1ccc(CNS(=O)(=O)c2ccc(N3C[C@H](CC(C)C)NC3=O)cc2)cc1OC		inhibition [2]: inactive
Active	5.29 µM	3.96 µM	4.48 µM	5.44 µM	3.07 µM	6.26 µM	COc1ccc(CNS(=O)(=O)c2ccc(NC(=O)[C@@H](N)CC(C)C)cc2)cc1OC	> 20 µM	IC50 [3]: 44.9 µM; inhibition [3]: Dose-dependent effect; IC50 [4]: > 800 µM
	5.54 µM	4.28 µM	2.86 µM	5.65 µM	2.44 µM	5.22 µM	COc1ccc(CNS(=O)(=O)c2ccc(N3C(=O)N[C@@H](CC(C)C)C3=O)cc2)cc1OC	> 20 µM	IC50 [3]: 26.4 µM; inhibition [3]: Dose-dependent effect; IC50 [4]: > 800 µM
							CO[C@H]1C[C@@H]2CC[C@@H](C)[C@@](O)(O2)C(=O)C(=O)N2CCCC[C@H]2C(=O)O[C@H]([C@H](C)C[C@@H]2CC[C@@H](O)[C@H](OC)C2)CC(=O)[C@H](C)/C=C(\C)[C@@H](O)[C@@H](OC)C(=O)[C@H](C)C[C@H](C)/C=C/C=C/C=C/1C		inhibition [5]: Active

SMILES	inhibition of S6K phosphorylation (qualitative) [1]	IC50 (A549)	IC50 (HCT-116)	IC50 (K562)	IC50 (MDA-MB-231)	IC50 (SK-HEP1)	IC50 (SNU-638)	IC50 (MRC5)	also measured
COc1cc([C@@H]2c3cc4c(cc3[C@@H](O[C@@H]3O[C@@H]5CO[C@@H](C)O[C@H]5[C@H](O)[C@H]3O)[C@H]3COC(=O)[C@H]23)OCO4)cc(OC)c1O [ETOPOSIDE]		0.3 µM	1.06 µM	0.76 µM	1.53 µM	0.63 µM	1.05 µM	11.7 µM	
